Experimental data reported in ChEMBL document CHEMBL4837187, “Antimicrobial Benzyltetrahydroisoquinoline-Derived Alkaloids from the Leaves of Doryphora aromatica” (2021).

Legend:
Assay type in all cases: functional
[1] = tested on: Mycobacterium tuberculosis; experiment: Antimicrobial activity against Mycobacterium tuberculosis MC2 6220 BSL2 assessed as microbial growth inhibition at 6.25 uM incubated for 16 hrs under aerobic condition by microplate reader assay relative to control; conditions: read-out: GI
[2] = tested on: Staphylococcus aureus; experiment: Antimicrobial activity against methicillin-resistant Staphylococcus aureus clinical isolate 4 assessed as microbial growth inhibition incubated for 16 hrs under aerobic condition by microplate reader assay
[3] = tested on: Staphylococcus aureus; experiment: Antimicrobial activity against Staphylococcus aureus assessed as microbial growth inhibition incubated for 16 hrs under aerobic condition by microplate reader assay
[4] = tested on: Staphylococcus aureus; experiment: Antimicrobial activity against methicillin-resistant Staphylococcus aureus clinical isolate 3 assessed as microbial growth inhibition incubated for 16 hrs under aerobic condition by microplate reader assay
[5] = tested on: Mycobacterium tuberculosis; experiment: Antimicrobial activity against Mycobacterium tuberculosis H37Rv assessed as microbial growth inhibition incubated for 16 hrs under aerobic condition by microplate reader assay
[6] = tested on: Staphylococcus aureus; experiment: Antimicrobial activity against methicillin-resistant Staphylococcus aureus clinical isolate 1 assessed as microbial growth inhibition incubated for 16 hrs under aerobic condition by microplate reader assay
[7] = tested on: Escherichia coli; experiment: Antimicrobial activity against Escherichia coli assessed as microbial growth inhibition incubated for 16 hrs under aerobic condition by microplate reader assay
[8] = tested on: Staphylococcus aureus; experiment: Antimicrobial activity against methicillin-resistant Staphylococcus aureus clinical isolate 2 assessed as microbial growth inhibition incubated for 16 hrs under aerobic condition by microplate reader assay
[9] = tested on: Mycobacterium tuberculosis; experiment: Antimicrobial activity against Mycobacterium tuberculosis MC2 6220 BSL2MIC assessed as microbial growth inhibition incubated for 16 hrs under aerobic condition by microplate reader assay
[10] = tested on: Staphylococcus aureus; experiment: Antimicrobial activity against methicillin-resistant Staphylococcus aureus clinical isolate 5 assessed as microbial growth inhibition incubated for 16 hrs under aerobic condition by microplate reader assay
[11] = tested on: Mycolicibacterium smegmatis; experiment: Antimicrobial activity against Mycobacterium smegmatis MC2 155 ATCC […] assessed as microbial growth inhibition incubated for 16 hrs under aerobic condition by microplate reader assay

## COc1cc2c(cc1OC)[C@@H](Cc1ccc(Oc3cc(Cc4c5cc(OC)c(OC)cc5cc[n+]4C)ccc3OC)cc1)N(C)CC2
[1]
  inhibition of growth at 6.25 µM: 70%
[2]
  MIC: 39.4 µM
[3]
  MIC: 39.4 µM
[4]
  MIC: 19.7 µM
[5]
  MIC: > 100 µM
[6]
  MIC: 39.4 µM
[7]
  MIC: 158 µM
[8]
  MIC: 39.4 µM
[9]
  MIC: 12.5 µM
[10]
  MIC: 19.7 µM
[11]
  MIC: 39.4 µM

## COc1cc2cc[n+](C)c(O)c2cc1OC
[3]
  MIC: > 100 µM
[7]
  MIC: > 100 µM
[11]
  MIC: > 100 µM

## COc1cc2cc[n+](C)c(Cc3ccc(Oc4cc(Cc5c6cc(OC)c(OC)cc6cc[n+]5C)ccc4OC)cc3)c2cc1OC
[2]
  MIC: 9.9 µM
[3]
  MIC: 9.9 µM
[4]
  MIC: 39.6 µM
[6]
  MIC: 9.9 µM
[7]
  MIC: 39.6 µM
[8]
  MIC: 39.6 µM
[10]
  MIC: 9.9 µM
[11]
  MIC: 158 µM

## COc1cc2cc[n+](C)c(Cc3ccc(OC)c(Oc4ccc(C=O)cc4)c3)c2cc1OC
[3]
  MIC: > 100 µM
[7]
  MIC: > 100 µM
[11]
  MIC: > 100 µM

## COc1cc2cc[n+](C)c(Cc3ccc(Oc4cc(Cc5c6cc(OC)c(OC)cc6cc[n+]5C)ccc4O)cc3)c2cc1OC
[3]
  MIC: > 100 µM
[7]
  MIC: > 100 µM
[11]
  MIC: > 100 µM
